Assay results taken from patent US11560400B2, “Salts of diphosphate phosphoramidate of nucleosides as anticancer compounds” (NuCana plc, priority 2017, dated 2023).
Where “and” joins values, the source holds several entries; their conditions need not be identical. Equal values may be shown once. Entries after “also recorded” stand apart in the source; their conditions may differ. Where a name gives a salt, the structure may show the parent alone. Read-outs that look alike come from different tables or passages of the source.

Key:
HT29 = experiment: CellTiterGlo cell viability assay, HT29; format: cell-based; conditions: HT29, 72 h; for EC50: read-out: Ab EC50; for inhibition at 198 µM: read-out: Top Inhibit
Summary of the method: (§1)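 Viability was measured by CellTiterGlo luminescence after 3 days of compound exposure, tested in duplicate at nine concentrations (3.16-fold steps, 198 μM top, 19.8 nM bottom, 0.5% DMSO final). Outputs were absolute EC50 and maximal percent inhibition at the highest dose.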

Mia-Pa-Ca-2 = experiment: CellTiterGlo cell viability assay, Mia-Pa-Ca-2; format: cell-based; conditions: Mia-Pa-Ca-2, 72 h
Summary of the method: as §1

MCF-7 = experiment: CellTiterGlo cell viability assay, MCF-7; format: cell-based; conditions: MCF-7, 72 h; for EC50: read-out: Ab EC50; for inhibition at 198 µM: read-out: Top Inhibit
Summary of the method: as §1

Human hepatocytes = conditions: pooled cryopreserved hepatocytes, 1 μM, 0 and 120 min, 37° C.
CCRF-CEM = experiment: CellTiterGlo cell viability assay, CCRF-CEM; format: cell-based; conditions: Homo sapiens, 72 h; for EC50: Table 3 classes, read-out: Ab EC50; for inhibition at 198 µM: percentage inhibition at the highest concentration tested, read-out: Top Inh
Summary of the method: as §1

OVCAR 3 = experiment: CellTiterGlo cell viability assay, OVCAR 3; format: cell-based; conditions: Homo sapiens; for EC50: OVCAR 3, 72 h, Table 3 classes, read-out: Ab EC50
Summary of the method: as §1

[1] = system: Lin−/CD34+/CD38−/CD123+ LSCs of KG1a cells; experiment: Leukaemic stem cell (LSC) targeting in KG1a cells; format: cell-based; conditions: in words
Protocol: KG1a cells were cultured for 48 h in the presence of a wide range of concentrations of each nucleoside analogue and their respective diphosphate phosphramidate. Cells were then harvested and labelled with a cocktail of anti-lineage antibodies (PE-cy7), anti-CD34 (FITC), anti-CD38 (PE) and anti-CD123 (PERCP cy5). The sub-population expressing a leukaemic stem cell (LSC) phenotype were subsequently identified and were expressed as a percentage of all viable cells left in the culture. The percentages of stem cells remaining were then plotted on a dose-response graph and the effects of the diphosphate phosphoramidate were compared with the parental nucleosides.

KG1a cells = experiment: In vitro cytotoxicity, Annexin V/propidium iodide assay in KG1a cells; format: cell-based; conditions: for change of potency (mean LD50) under hypoxic versus normoxic conditions: 5% oxygen; for Hypoxia Mean LD50 / Mean LD50 (Normoxia Mean LD50): 48 h; for Hypoxia Mean LD50: hypoxic (5% O2); for Mean LD50 (Normoxia Mean LD50): normoxic (20% oxygen); for mean LD50: normoxic; for Ratio Normoxia/Hypoxia: ratio of mean LD50 values
Protocol: The acute myeloid leukaemia (AML) KG1a cell line was maintained in RPMI medium (Invitrogen, Paisley, UK) supplemented with 100 units/mL penicillin, 100 μg/mL streptomycin and 20% foetal calf serum. Cells were subsequently aliquoted (10^5 cells/100 μL) into 96-well plates and were incubated at 37° C. in a humidified normoxic (20% oxygen) or hypoxic (1% or 5% oxygen) atmosphere for 48 h in the presence of clofarabine, or clofarabine diphosphate phosphoramidates of the invention (1×10^−10M-1×10^−6M). In addition, control cultures were carried out to which no drug was added. Cells were subsequently harvested by centrifugation and were analysed by flow cytometry using the Annexin V assay.
Cultured cells were harvested by centrifugation and then resuspended in 195 μL of calcium-rich buffer. Subsequently, 5 μL of Annexin V (Caltag Medsystems, Botolph Claydon, UK) was added to the cell suspension and cells were incubated in the dark for 10 mins prior to washing. Cells were finally resuspended in 190 μL of calcium-rich buffer together with 10 μL of propidium iodide. Apoptosis was assessed by dual-colour immunofluorescent flow cytometry as described previously. Subsequently LD50 values (the dose required to kill 50% of the cells in a culture) were calculated for each nucleoside analogue and diphosphate phosphoramidate.
The data obtained in these experiments were evaluated using one-way ANOVA. All data was confirmed as Gaussian or a Gaussian approximation using the omnibus K2 test. LD50 values were calculated from the non-linear regression and line of best-fit analysis of the sigmoidal dose-response curves. All statistical analyses were performed using Graphpad Prism 6.0 software (Graphpad Software Inc., San Diego, Calif.).
The in vitro drug sensitivity of KG1a cells was assessed using the Annexin V/propidium iodide assay.

RL = experiment: CellTiterGlo cell viability assay, RL; format: cell-based; conditions: Homo sapiens, 72 h; for EC50: Table 3 classes, read-out: Ab EC50; for inhibition at 198 µM: percentage inhibition at the highest concentration tested, read-out: Top Inh
Summary of the method: as §1

HL-60 = experiment: CellTiterGlo cell viability assay, HL-60; format: cell-based; conditions: Homo sapiens, HL-60, 72 h; for EC50: Table 3 classes, read-out: Ab EC50; for inhibition at 198 µM: percentage inhibition at the highest concentration tested, read-out: Top Inh
Summary of the method: as §1

K562 = experiment: CellTiterGlo cell viability assay, K562; format: cell-based; conditions: Homo sapiens, K562, 72 h; for inhibition at 198 µM: percentage inhibition at the highest concentration tested, read-out: Top Inh; for EC50: Table 3 classes, read-out: Ab EC50
Summary of the method: as §1

MOLT-4 = experiment: CellTiterGlo cell viability assay, MOLT-4; format: cell-based; conditions: Homo sapiens, MOLT-4, 72 h; for inhibition at 198 µM: percentage inhibition at the highest concentration tested, read-out: Top Inh; for EC50: Table 3 classes, read-out: Ab EC50
Summary of the method: as §1

in vitro = conditions: human, hepatocytes, pH 7.3
RPMI-8226 = experiment: CellTiterGlo cell viability assay, RPMI-8226; format: cell-based, Human; conditions: Homo sapiens, RPMI-8226, 72 h; for EC50: Table 3 classes, read-out: Ab EC50; for inhibition at 198 µM: percentage inhibition at the highest concentration tested, read-out: Top Inh
Summary of the method: as §1

[2] = percentage inhibition at the highest concentration tested
[3] = Homo sapiens, HT-29, 72 h, Table 3 classes
[4] = Homo sapiens, HT-29, 72 h, percentage inhibition at the highest concentration tested
[5] = Homo sapiens, MCF7, 72 h, Table 3 classes
[6] = Homo sapiens, MCF7, 72 h, percentage inhibition at the highest concentration tested

Nc1ncnc2c1nc(Cl)n2[C@@H]1O[C@H](CO)[C@@H](O)[C@H]1O [8-Cl-Adenosine, reference compound]
EC50 (HT29; absolute EC50, numeric values): 1.96 µM | Top Inhibit (HT29; [2]): 73% | EC50 (Mia-Pa-Ca-2; absolute EC50, read-out: Ab EC50): 0.42 µM | Top Inhibit (Mia-Pa-Ca-2; [2]): 85% | EC50 (MCF-7; absolute EC50, numeric values): 1.83 µM | Top Inhibit (MCF-7; [2]): 85.7% | Human hepatocytes Mean half-life (Human hepatocytes): >2 h

C[C@H](NP(=O)(Oc1ccccc1)OP(=O)(O)OC[C@H]1O[C@@H](n2cnc3c(N)nc(Cl)nc32)[C@H](F)C1O)C(=O)OCc1ccccc1 (stereo partly drawn) [Example 1, 2-Chloro-9-(2′-Deoxy-2′-fluoro-β-D-arabinofuranosyl)adenine-5′-O-[phenyl(benzoxy-L-alaninyl)] Diphosphate Triethylammonium Salt]
EC50 (CCRF-CEM): < 0.2 µM | inhibition at 198 µM (CCRF-CEM): 98.7% | EC50 (HT29; [3]): 0.2 to 2 µM | inhibition at 198 µM (HT29; [4]): 66% | EC50 (OVCAR 3): > 10 µM | selectivity against LSCs [1]: trend towards increased selectivity | change of potency (mean LD50) under hypoxic versus normoxic conditions (KG1a cells; in words): no significant difference in mean LD50 values; also recorded: reduction in potency was not observed | Hypoxia Mean LD50 (KG1a cells): 16.3 nM | Mean LD50 (Normoxia Mean LD50) (KG1a cells): 13.7 nM | potency in KG1a cells (dose-response curves) (KG1a cells; in words): highest potency; also recorded: slightly more potent | mean LD50 (KG1a cells): 13.7 nM | Ratio Normoxia/Hypoxia (KG1a cells): 84.0 | EC50 (RL): 0.2 to 2 µM | inhibition at 198 µM (RL): 70% | EC50 (HL-60): < 0.2 µM | inhibition at 198 µM (HL-60): 97% | inhibition at 198 µM (K562): 24% | EC50 (K562): > 10 µM | inhibition at 198 µM (MOLT-4): 82.7% | EC50 (MOLT-4): < 0.2 µM | half-life (in vitro): 0.333 to 1.67 h | EC50 (MCF-7; [5]): 0.2 to 2 µM | inhibition at 198 µM (MCF-7; [6]): 59% | EC50 (RPMI-8226): 5 to 10 µM | inhibition at 198 µM (RPMI-8226): 91%

CCOC(=O)[C@H](C)NP(=O)(Oc1ccccc1)OP(=O)(O)OC[C@H]1O[C@@H](n2cnc3c(N)nc(Cl)nc32)[C@H](F)C1O (stereo partly drawn) [Example 2, 2-Chloro-9-(2′-Deoxy-2′-fluoro-β-D-arabinofuranosyl)adenine-5′-O-[phenyl(ethoxy-L-alaninyl)] Diphosphate Triethylammonium Salt]
EC50 (CCRF-CEM): < 0.2 µM | inhibition at 198 µM (CCRF-CEM): 98.7% | EC50 (HT29; [3]): 0.2 to 2 µM | inhibition at 198 µM (HT29; [4]): 62% | inhibition at 198 µM (OVCAR 3; OVCAR-3, 72 h, percentage inhibition at the highest concentration tested, read-out: Top Inhibit): 48% | EC50 (OVCAR 3): > 10 µM | change of potency (mean LD50) under hypoxic versus normoxic conditions (KG1a cells; in words): reduction in potency was not observed | Hypoxia Mean LD50 (KG1a cells): 95.0 nM | Mean LD50 (Normoxia Mean LD50) (KG1a cells): 71.0 nM | mean LD50 (KG1a cells): 43.8 nM and 71 nM | Ratio Normoxia/Hypoxia (KG1a cells): 74.7 | EC50 (RL): 0.2 to 2 µM | inhibition at 198 µM (RL): 65% | EC50 (HL-60): < 0.2 µM | inhibition at 198 µM (HL-60): 98% | inhibition at 198 µM (K562): 29% | EC50 (K562): > 10 µM | inhibition at 198 µM (MOLT-4): 98% | EC50 (MOLT-4): < 0.2 µM | half-life (in vitro): 0.333 to 1.67 h | EC50 (MCF-7; [5]): 0.2 to 2 µM | inhibition at 198 µM (MCF-7; [6]): 54% | EC50 (RPMI-8226): 5 to 10 µM | inhibition at 198 µM (RPMI-8226): 92%
